Data on seven compounds can be found in patent US20110244503A1, “System and Method for Anti-Cancer Drug Candidate Evaluation” (priority 2010, published 2011).

Assay [1] has as its system ovarian cancer cell line, CAOV-3. Briefly: MiCK-type spectrophotometric apoptosis assay, CAOV-3 cells. Format: cell-based. As to conditions: as Example 1 but with higher drug concentrations, above 3 kinetic units = positive response. How it is done:
Cancer cells were obtained from exponentially growing cultures in RPMI 1640 medium without phenol red supplemented with 10% heat-inactivated fetal bovine serum, 100 U/ml penicillin and 100 μg/mL streptomycin (complete medium) in humidified air with 5% CO2 at 37° C. Cells were harvested, washed with pre-warmed medium and resuspended in complete medium. Appropriate cell counts and viability were tested.
Cells from each cell line in complete medium were placed in wells of a 96-well plate at a concentration of 2 to 5×10^5 cells/ml. Various dilutions of the drug candidate, Idarubicin, were added to the wells in 5 μL aliquots. Final concentrations for the drug candidate were 0.01, 0.1, 0.5, 1, 5, 10 and 20 μM. The plates were incubated at 37° C. for 30 minutes in a humidified 5% CO2 atmosphere. After this adjustment period, 30 μl of sterile mineral oil was layered on top of each well. The microtiter plate was placed in an incubated spectrophotometer chamber (37° C.) and OD at 600 nm was measured every 5 minutes for a period of 48 hours. The reader was calibrated to zero absorbance using well containing only complete medium and no cells. All tests were performed in triplicate.
Data acquisition and computation was performed using appropriate software. OD readings were plotted against time to provide a kinetic representation of cell responses to the drugs and drug candidate. Kinetic units were calculated for each test well. A kinetic unit below […] was considered a negative response and above 3 was considered a positive response. A kinetic unit between 1.5 and 3 was considered a marginal response.
A variety of anti-cancer drugs were tested against a single ovarian cancer cell line, CAOV-3, to determine their suitability for use against ovarian cancer. Tests were performed in a manner similar to those in Example 1, but with higher drug concentrations.

The subject of assay [2] is MOLT-3, an acute T-cell lymphoblastic leukemia. Briefly: MiCK-type spectrophotometric apoptosis assay, MOLT-3 cells. Format: cell-based, human. As to conditions: 0.01-20 μM. How it is done:
(§1) Spectrophotometric data may be converted to kinetic units. Kinetic units are determined by the slope of the curve created when the change in the OD at 600 nm caused by cell blebbing is plotted as a function of time. Specific information regarding the calculation of kinetic units is provided in Kravtsov, Vladimir D. et al., Use of the Microculture Kinetic Assay of Apoptosis to Determine Chemosensitivities of Leukemias, Blood 92:968-980 (1998), incorporated by reference herein. Optical density for a given drug candidate at a given concentration may be plotted against time. This plot gives a distinctive increasing curve if the cells are undergoing apoptosis. […] (FIG. 3.) Cell death due to reasons other than apoptosis can also be determined by the current assay and is useful in eliminating false positives from drug candidate screening. […]
(§2) Vmax is the maximum kinetic rate, which is the slope of the steep increase in the OD v. time plot when cells are undergoing apoptosis. […] ODcell is the initial OD of the control containing cells and ODblank is the initial OD of a blank well containing only medium or medium and drug (the drug may be omitted for some drugs, but for colored drugs in particular it may be included in the blank). y is a coefficient dependent on the cell type being assayed and may be determined experimentally through observation of the cell lines. […]

The test system of assay [3] is JURL-MK2, a chronic myeloid leukemia in blast crisis. Briefly: MiCK-type spectrophotometric apoptosis assay, JURL-MK2 cells. It counts as cell-based, human. To be noted: 0.01-20 μM, OD at 600 nm every 5 minutes for 48 hours, above 3 = positive response. Here is the method:
as §1, §2

For assay [4], the system named is RAMOS, a B cell line derived from Burkitt's lymphoma. Briefly: MiCK-type spectrophotometric apoptosis assay, RAMOS cells. Format: cell-based, human. As to conditions: 0.01-20 μM. Here is the method: as §1, §2
Assay [5] deals with HL60, an acute promyelocytic leukemia cell line. Briefly: MiCK-type spectrophotometric apoptosis assay, HL60 cells. Format: cell-based, human. As to conditions: HL-60 cells. Here is the method:
as §1, §2

Regarding `O=C1c2c(O)ccc(O)c2C(=O)c2c(NCCNCCO)ccc(NCCNCCO)c21` [Mitoxantrone], the “response / suitability (in words)” value in assay [1] was “positive response at reasonable concentrations”.
Still for that read-out and setting: then `O=C1[O][Pt]2([NH][C@@H]3CCCC[C@H]3[NH]2)[O]C1=O` [Oxaliplatin], with “not suitable drugs for treating ovarian cancer”; and `CO[C@@]12[C@H](COC(N)=O)C3=C(C(=O)C(C)=C(N)C3=O)N1C[C@@H]1N[C@@H]12` [Mitomycin], with “positive response at reasonable concentrations”.
Still for that read-out and setting: the same measure for `COc1cccc2c1C(=O)c1c(O)c3c(c(O)c1C2=O)C[C@@](O)(C(C)=O)C[C@@H]3O[C@H]1C[C@H](N)[C@H](O)[C@H](C)O1` [Daunorubicin]: “positive response at reasonable concentrations”.
Turning to `CC(=O)[C@]1(O)Cc2c(O)c3c(c(O)c2[C@@H](O[C@H]2C[C@H](N)[C@H](O)[C@H](C)O2)C1)C(=O)c1ccccc1C3=O` [Idarubicin, 4-demethoxydaunorubicin], the “concentration dependence of kinetic unit readings (in words)” value in assay [2] is “higher kinetic unit readings at lower concentrations”. For the same compound, the apoptotic response result in assay [2] (OD at 600 nm every 5 minutes for 48 hours, above 3 = positive response) was “exceeding 3 kinetic units”; in assay [3], “exceeding 3 kinetic units”; in assay [4] (RAMOS cells, OD at 600 nm every 5 minutes for 48 hours, above 3 = positive response) it was “exceeding 3 kinetic units”. Moreover, the “concentration dependence of response (in words)” value in assay [4] (Ramos cells) was “positive response was seen in the Ramos cell line only at high concentrations”. In assay [5] (0.01-20 μM, 48 hours, between 1.5 and 3 = marginal response), this compound displayed a maximal response of 2.3 kinetic units. Further, the “drug sensitivity (in words)” value in assay [5] (threshold 3 kinetic units) is given as “only marginal sensitivity”. For the same compound, the “response / suitability (in words)” value in assay [1] is recorded as “positive response at reasonable concentrations”.
With `CCC1=C[C@@H]2CN(C1)Cc1c([nH]c3ccccc13)[C@@](C(=O)OC)(c1cc3c(cc1OC)N(C)[C@H]1[C@@](O)(C(=O)OC)[C@H](OC(C)=O)[C@]4(CC)C=CCN5CC[C@]31[C@@H]54)C2` [Vinorelbine], the “response / suitability (in words)” value in assay [1] is on record as “not suitable drugs for treating ovarian cancer”.
Same read-out and setting: then `CCc1c2c(nc3ccc(OC(=O)N4CCC(N5CCCCC5)CC4)cc13)-c1cc3c(c(=O)n1C2)COC(=O)[C@]3(O)CC` [Irinotecan], with “need to use high concentrations of the drug to achieve a positive response”.
